How the values were obtained:
[1] = system: active (GTP-bound) K-RAS in A549 cells; experiment: K-RAS activation (GTP pull down) assay with immunoblotting; assay type: cell-based
Procedure: Further, a K-RAS activation assay with subsequent immunoblotting has been carried out. […] Cells were lysed in lysis buffer, adjusted the volume of each sample to 1 mL with 1× Assay Lysis Buffer, 40 μL of the Raf1 RBD Agarose bead slurry were added to each sample quickly, follow by incubating the tubes at 4° C. for 1 hour with gentle agitation, beads were washed three times with cold lysis buffer, and bounded protein was resuspended in 40 μL of 2× reducing SDS-PAGE sample buffer and heated at 100° C. for 5 min. The samples were then run by SDS-PAGE followed by immunoblotting. Total amount of RAS being pulled down were compared between the control and treatment groups.
The compound of Formula (VII) inhibited K-RAS binding to GTP in A549 cells.

[2] = system: human pancreatic ductal adenocarcinoma cells; settings: in vitro and in vivo; cited from earlier work
[3] = system: p-C-raf, pErk, pAkt in A549 cells; experiment: Western blot of signaling pathways downstream to K-RAS; assay type: cell-based; settings: A549, 2.5 μM, 5 μM and 10 μM, compared with untreated cells
Procedure: Equal amounts of protein (20-40 μg per lane) were separated with a 10% SDS-PAGE gel, then the separated proteins were transferred to a Nitrocellulose (NC) membrane, which was then exposed to 5% non-fat dry milk in TBS containing 0.1% Tween 20 (0.1% TBST) for 1 hour at room temperature with constant agitation, followed by overnight incubation at 4° C. with primary antibodies, after washing three times by TBST, the membranes were incubated with secondary rabbit or mouse fluorescent antibodies, the signal intensity of the membranes was detected by anLI-COR Odessy scanner (Belfast, Me., USA). All primary antibodies were diluted 1:1000, while their recommended secondary antibodies were diluted 1:10000.

A549 cells [4] = experiment: Colony formation assay; assay type: cell-based; settings: 10 days
Procedure: Still further, the inhibitory effect of the compound of Formula (VII) on the colony formation in A549 cells has been analyzed to provide further evidence that the compound of Formula (VII) inhibits the formation of colonies of cancerous cells to an exceptional degree, too. A549 cells were seeded on a six-well plate at a density of 500 cells per well. […] After 10 days, the colonies were fixed with 4% paraformaldehyde and stained with a 0.5% (0.5% w/v) crystal violet solutions, the number of colonies >50 was counted under a dissecting microscope.

[5] = system: normal lung epithelial cells (CCD19-Lu); experiment: MTT cell viability assay, 72 h; assay type: cell-based; settings: Homo sapiens, CCD 19Lu
Procedure: (§1) A549 (K-RAS^G12S), H358 (K-RAS^G12C), H2122 (K-RAS^G12C) and CCD19-Lu cells were obtained from the American Type Culture Collection and cultured in an environment of 5% CO2 at 37° C. in RPMI-1640 medium supplemented with 10% fetal bovine serum (FBS), 100 units/mL penicillin, and 100 μg/mL streptomycin.
(§2) 3000 cells were seeded on 96-well plates, cultured overnight for cell adhesion, then treated with DMSO or various concentrations of compound of Formula (VII) for 72 h, at the end of the incubation, each well was added with 10 μL of MTT (5 mg/mL; Sigma), and the plates were incubated for an additional 4 h, then the crystals were dissolved in 100 μL of the resolved solution (10% SDS and 0.1 mM HCL). The absorbance at 570 nm was measured using a microplate reader (Tecan, Morrisville, N.C., USA). The cell viability was calculated relative to untreated controls, with results based on at least three independent experiments. […] The IC50 in CCD19-Lu is more than 20 μM (Table 1).

H358 (K-RAS G12C) cells = experiment: MTT cell viability assay, 72 h; assay type: cell-based; settings: Homo sapiens, NCI-H358
Procedure: as §1, §2

A549 (K-RAS G12S) cells = experiment: MTT cell viability assay, 72 h; assay type: cell-based; settings: Homo sapiens
Procedure: as §1, §2

H2122 (K-RAS G12C) cells = experiment: MTT cell viability assay, 72 h; assay type: cell-based; settings: Homo sapiens, NCI-H2122
Procedure: as §1, §2

A549 cells [6] = experiment: Annexin V-FITC/PI apoptosis assay by flow cytometry; assay type: cell-based; settings: A549, 2.5 μM, 5 μM or 10 μM, 48 h, compared with control group
Procedure: Apoptosis was measured using the Annexin V-FITC apoptosis detection kit (BD Biosciences, San Jose, Calif., USA), according to the manufacturer protocol. […] Subsequently, cells were trypsinized, washed with PBS and stained with 100 μL binding buffer containing 2 μL Annexin-V FITC and 5 μL propidine iodide (PI) incubated in the dark at room temperature for 15 min, before further addition of 400 μL of 1× Annexin-binding buffer. The stained cells were analyzed quantitatively using a Flow Cytometer (BD Biosciences, San Jose, Calif., USA). Data were analyzed by Flow Jo software.

Compound | GTP binding with K-RAS ([1]; A549, 4 μM, positive control) | proliferation of human pancreatic ductal adenocarcinoma cells [2] | level of p-C-raf [3] | level of pAkt [3] | level of pErk [3] | colony formation capacity (A549 cells [4]; A549, 1.25 μM, 2.5 μM, 5 μM or 10 μM) | colonies formed (A549 cells [4]; A549, 10 μM) | IC50 [5] [µM] | IC50 (H358 (K-RAS G12C) cells) [µM] | IC50 (A549 (K-RAS G12S) cells) [µM] | IC50 (H2122 (K-RAS G12C) cells) [µM] | amount of K-RAS being pulled down (GTP-bound K-RAS) ([1]; A549, 10 μM, 48 h, compared to untreated control) | cell apoptosis (A549 cells [6])
c1ccc(Cn2c(-c3ccc(OC[C@H](C4CCNCC4)n4c(-c5ccccc5)nc5ccccc54)cc3)nc3ccccc32)cc1 [Deltarasin, reference compound] | suppression | strongly suppressed | – | – | – | – | – | – | – | – | – | – | –
CC(C)(C)c1cc2oc3c(c2c(/C=N/NC(=O)c2ccc(O)cc2O)c1O)CCCC3 [compound of Formula (VII)] | – | – | decreased | decreased | decreased | significantly inhibited | no visible colonies | > 20 | 2.4 ± 2.1 | 5.59 ± 1.27 | 3.35 ± 2.74 | caused a decrease | induced significant cell apoptosis

From patent US20170135979A1, “PDE-DELTA INHIBITOR FOR THE TREATMENT OF CANCER” (Macau University of Science and Technology, priority 2015, published 2017)
